Assay results as given in patent US11697646B2, “Triazole N-linked carbamoyl cyclohexyl acids as LPA antagonists” (BRISTOL-MYERS SQUIBB COMPANY, priority 2017, dated 2023).

These compounds were tested against T1, human LPA1 (Homo sapiens, UniProt Q92633) (assay: LPA1 functional antagonist assay (calcium flux)). Conditions: CHO cells overexpressing human LPA1; calcium flux induced by 10 nM LPA; read-out: hLPA1 IC50.
T1 construct: expressed in transfected cells; host or cells: Chinese hamster ovary (CHO) cells
Assay type: cell-based
Protocol: The effectiveness of compounds of the present invention as LPA1 inhibitors can be determined in an LPA1 functional antagonist assay as follows:
The cells were then equilibrated to room temperature for 30 minutes before the assay. […] IC50 values were determined by fitting data to a 4-parameter logistic equation (GraphPad Prism, San Diego Calif.).

T1 sequence (Q92633 whole entry): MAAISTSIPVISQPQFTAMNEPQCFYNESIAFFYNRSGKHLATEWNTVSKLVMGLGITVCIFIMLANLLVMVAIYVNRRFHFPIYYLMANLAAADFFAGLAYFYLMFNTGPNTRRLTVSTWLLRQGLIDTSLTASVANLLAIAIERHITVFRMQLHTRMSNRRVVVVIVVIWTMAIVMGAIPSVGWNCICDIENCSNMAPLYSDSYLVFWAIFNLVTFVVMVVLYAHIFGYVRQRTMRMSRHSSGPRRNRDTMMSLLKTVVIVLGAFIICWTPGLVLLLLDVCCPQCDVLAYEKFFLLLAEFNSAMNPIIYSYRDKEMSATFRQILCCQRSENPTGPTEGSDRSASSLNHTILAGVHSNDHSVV

Row | IC50 | SMILES
1 | 313 nM | Cc1nc(-c2nnn(C)c2CNS(=O)(=O)N(C)Cc2ccccc2)ccc1O[C@H]1CCC[C@H](C(=O)O)C1 [Example 139, (1S,3S)-3-((6-(5-(((N-benzyl-N-methylsulfamoyl)amino)methyl)-1-methyl-1H-1,2,3-triazol-4-yl)-2-methylpyridin-3-yl)oxy)cyclohexane-1-carboxylic acid]
2 | 85 nM | Cc1nc(-c2nnn(C)c2NC(=O)OC(C)C2CC2)ccc1O[C@H]1CCC[C@H](C(=O)O)C1 (mixture of isomers) [Example 69, (1S,3S)-3-((6-(5-(((1-cyclopropyl-ethoxy)carbonyl)amino)-1-methyl-1H-1,2,3-triazol-4-yl)-2-methyl-pyridin-3-yl)oxy)cyclohexane-1-carboxylic acid]
3 | 275 nM | Cc1nc(-c2nnn(C)c2CNC(=O)N[C@H](C)c2ccccc2)ccc1O[C@H]1CCC[C@H](C(=O)O)C1 [Example 130, (1S,3S)-3-((2-methyl-6-(1-methyl-5-((3-((R)-1-phenylethyl)ureido)methyl)-1H-1,2,3-triazol-4-yl)pyridin-3-yl)oxy)cyclohexane-1-carboxylic acid]
4 | 783 nM | CCCCC(=O)NCc1c(-c2ccc(O[C@H]3CCC[C@H](C(=O)O)C3)c(C)n2)nnn1C [Example 237, (1S,3S)-3-((2-methyl-6-(1-methyl-5-(pentanamidomethyl)-1H-1,2,3-triazol-4-yl)pyridin-3-yl)oxy)cyclo-hexanecarboxylic acid]
5 | 254 nM | Cc1nc(-c2nnn(C)c2NC(=O)OCCCF)ccc1O[C@H]1CCC[C@H](C(=O)O)C1 [Example 144, (1S,3S)-3-((6-(5-(((3-fluoropropoxy)carbonyl)amino)-1-methyl-1H-1,2,3-triazol-4-yl)-2-methylpyridin-3-yl)oxy)cyclohexane-1-carboxylic acid]
6 | 68 nM | Cc1nc(-c2nnn(C)c2NC(=O)OC2CCCC2)ccc1O[C@H]1CCC[C@H](C(=O)O)C1 [Example 66, (1S,3S)-3-((6-(5-(((cyclopentyloxy)carbonyl)amino)-1-methyl-1H-1,2,3-triazol-4-yl)-2-methylpyridin-3-yl)oxy)cyclohexane-1-carboxylic acid]
7 | 33 nM | Cn1nnc(-c2ccc(O[C@H]3CCC[C@H](C(=O)O)C3)c(C(F)(F)F)n2)c1CNC(=O)OC1CCCC1 [Example 96]
8 | 167 nM | Cc1nc(-c2nnn(C)c2CNS(=O)(=O)N(C)CC2CCCC2)ccc1O[C@H]1CCC[C@H](C(=O)O)C1 [Example 137, (1S,3S)-3-((6-(5-(((N-(cyclopentylmethyl)-N-methylsulfamoyl)amino)methyl)-1-methyl-1H-1,2,3-triazol-4-yl)-2-methylpyridin-3-yl)oxy)cyclohexane-1-carboxylicacid]
9 | 30 nM | CCC(CC)OC(=O)Nc1c(-c2ccc(O[C@H]3CCC[C@H](C(=O)O)C3)c(C)n2)nnn1C [Example 142, (1S,3S)-3-((2-methyl-6-(1-methyl-5-(((pentan-3-yloxy)carbonyl)amino)-1H-1,2,3-triazol-4-yl)pyridin-3-yl)oxy)cyclohexane-1-carboxylic acid]
10 | 37 nM | CCc1nc(-c2nnn(C)c2CNC(=O)OC2CCCC2)ccc1O[C@H]1CCC[C@H](C(=O)O)C1 [Example 44, (1S,3S)-3-((6-(5-((((cyclopentyloxy)carbonyl)amino)methyl)-1-methyl-1H-1,2,3-triazol-4-yl)-2-ethylpyridin-3-yl)oxy)cyclo-hexane-1-carboxylic acid]
11 | 160 nM | CCCOC(=O)NCc1c(-c2ccc(O[C@H]3CCC[C@H](C(=O)O)C3)c(C)n2)nnn1C [Example 24, (1S,3S)-3-((2-methyl-6-(1-methyl-5-(((propoxycarbonyl)amino)methyl)-1H-1,2,3-triazol-4-yl)pyridin-3-yl)oxy)cyclohexane-1-carboxylic acid]
12 | 1020 nM | Cc1nc(-c2nnn(C)c2CCNC(=O)CC(C)CC(C)(C)C)ccc1O[C@H]1CCC[C@H](C(=O)O)C1 (mixture of isomers) [Example 239, (1S,3S)-3-((2-methyl-6-(1-methyl-5-(2-(3,5,5-trimethylhexanamido)ethyl)-1H-1,2,3-triazol-4-yl)pyridin-3-yl)oxy)cyclohexane-1-carboxylic acid (diastereomeric mixture)]
13 | 2030 nM | CCCOC(=O)NCc1c(-c2ccc(O[C@H]3CCC[C@H](C(=O)O)C3)c(C(F)F)n2)nnn1C [Example 101, (1S,3S)-3-((2-(difluoromethyl)-6-(1-methyl-5-(((propoxycarbonyl)amino)methyl)-1H-1,2,3-triazol-4-yl)pyridin-3-yl)oxy)cyclohexane-1-carboxylic acid]
14 | 56 nM | Cc1nc(-c2nnn(C)c2CN(C)C(=O)OCc2ccccc2)ccc1O[C@H]1CCC[C@H](C(=O)O)C1 [Example 35, (1S,3S)-3-((6-(5-((((benzyloxy)carbonyl)(methyl)amino)methyl)-1-methyl-1H-1,2,3-triazol-4-yl)-2-methylpyridin-3-yl)oxy)cyclohexanecarboxylic acid]
15 | 84 nM | Cn1nnc(-c2ccc(O[C@H]3CCC[C@H](C(=O)O)C3)cn2)c1CNC(=O)OC1CCCC1 [Example 6, (1S,3S)-3-((6-(5-((((cyclopentyloxy)carbonyl)amino)methyl)-1-methyl-1H-1,2,3-triazol-4-yl)pyridin-3-yl)oxy)cyclohexane-1-carboxylic acid]
16 | 38 nM | Cn1nnc(-c2ccc(O[C@H]3CCC[C@H](C(=O)O)C3)cn2)c1NC(=O)OCCC1CC1 [Example 84, (1S,3S)-3-((6-(5-(((2-cyclopropyl-ethoxy)carbonyl)amino)-1-methyl-1H-1,2,3-triazol-4-yl)pyridin-3-yl)oxy)cyclohexane-1-carboxylic acid]
17 | 217 nM | CCCN(C)C(=O)NCc1c(-c2ccc(O[C@H]3CCC[C@H](C(=O)O)C3)c(C)n2)nnn1C [Example 110, (1S,3S)-3-((2-methyl-6-(1-methyl-5-((3-methyl-3-propylureido)methyl)-1H-1,2,3-triazol-4-yl)pyridin-3-yl)oxy)cyclohexanecarboxylic acid]
18 | 63 nM | Cc1nc(-c2nnn(C)c2CNC(=O)NCc2ccccc2)ccc1O[C@H]1CCC[C@H](C(=O)O)C1 [Example 112, (1S,3S)-3-((6-(5-((3-benzylureido)methyl)-1-methyl-1H-1,2,3-triazol-4-yl)-2-methylpyridin-3-yl)oxy)cyclohexane-1-carboxylic acid]
19 | 72 nM | Cc1nc(-c2nnn(C)c2NC(=O)OCC(C)(C)C)ccc1O[C@H]1CCC[C@H](C(=O)O)C1 [Example 67, (1S,3S)-3-((2-methyl-6-(1-methyl-5-(((neopentyloxy)carbonyl)amino)-1H-1,2,3-triazol-4-yl)pyridin-3-yl)oxy)cyclohexane-1-carboxylic acid]

Row | SMILES | IC50
20 | CCCCOC(=O)N(C)Cc1c(-c2ccc(O[C@H]3CCC[C@H](C(=O)O)C3)c(C)n2)nnn1C [Example 36, (1S,3S)-3-((6-(5-(((butoxycarbonyl)(methyl)amino)methyl)-1-methyl-1H-1,2,3-triazol-4-yl)-2-methyl-pyridin-3-yl)oxy)cyclohexane carboxylic acid] | 19 nM
21 | COc1ccc(OC(=O)NCc2c(-c3ccc(O[C@H]4CCC[C@H](C(=O)O)C4)c(C)n3)nnn2C)cc1 [Example 63, (1S,3S)-3-((6-(5-((((4-methoxyphenoxy)carbonyl)amino)methyl)-1-methyl-1H-1,2,3-triazol-4-yl)-2-methylpyridin-3-yl)oxy)cyclo-hexane-1-carboxylic acid] | 792 nM
22 | Cc1nc(-c2nnn(C)c2NC(=O)OCC(C)C)ccc1O[C@H]1CCC[C@H](C(=O)O)C1 [Example 78, (1S,3S)-3-((6-(5-((isobutoxy-carbonyl)amino)-1-methyl-1H-1,2,3-triazol-4-yl)-2-methylpyridin-3-yl)oxy)cyclohexane-1-carboxylic acid] | 29 nM
23 | Cc1nc(-c2nnn(C)c2CNC(=O)OC(C)(C)C)ccc1O[C@H]1CCC[C@H](C(=O)O)C1 [Example 30, (1S,3S)-3-((6-(5-(((tert-butoxycarbonyl)amino)methyl)-1-methyl-1H-1,2,3-triazol-4-yl)-2-methylpyridin-3-yl)oxy)cyclohexane-1-carboxylic acid] | 120 nM
24 | CC(C)COC(=O)NCc1c(-c2ccc(O[C@H]3CCC[C@H](C(=O)O)C3)c(C(F)(F)F)n2)nnn1C [Example 93, (1S,3S)-3-((6-(5-(((isobutoxy-carbonyl)amino)methyl)-1-methyl-1H-1,2,3-triazol-4-yl)-2-(trifluoro-methyl)pyridin-3-yl)oxy)cyclohexane-1-carboxylic acid] | 25 nM
25 | Cc1nc(-c2nnn(C)c2NC(=O)OC(C)(C)C)ccc1O[C@H]1CCC[C@H](C(=O)O)C1 [Example 64, (1S,3S)-3-((6-(5-((tert-butoxycarbonyl)amino)-1-methyl-1H-1,2,3-triazol-4-yl)-2-methylpyridin-3-yl)oxy)cyclohexane-1-carboxylicacid] | 54 nM

Same assay, conditions: human LPA1 functional antagonist assay; read-out: hLPA1 IC50

Row | SMILES | IC50
26 | CC[C@H](C)COC(=O)NCc1c(-c2cnc(O[C@H]3CCC[C@H](C(=O)O)C3)c(C)n2)nnn1C [Example 161, (1S,3S)-3-((3-methyl-5-(1-methyl-5-(((((S)-2-methylbutoxy)carbonyl)amino)methyl)-1H-1,2,3-triazol-4-yl)pyrazin-2-yl)oxy)cyclohexane-1-carboxylic acid] | 109 nM
27 | Cc1nc(-c2nnn(C)c2CNC(=O)OC2CCC2)ccc1O[C@H]1CCC[C@H](C(=O)O)C1 [Example 177, (1S,3S)-3-((6-(5-(((cyclobutoxycarbonyl)amino)methyl)-1-methyl-1H-1,2,3-triazol-4-yl)-2-methyl-pyridin-3-yl)oxy)cyclohexane-1-carboxylic acid] | 148 nM
28 | CCC[C@H](C)OC(=O)NCc1c(-c2ccc(O[C@H]3CCC[C@H](C(=O)O)C3)c(C)n2)nnn1C [Example 165, (1S,3S)-3((2-methyl-6-(1-methyl-5-((((((S)-pentan-2-yl)oxy)carbonyl)amino)methyl)-1H-1,2,3-triazol-4-yl)pyridin-3-yl)oxy)cyclohexane-1-carboxylic acid] | 34 nM
